Like-named read-outs stand apart in the source and are kept apart here. Marks after values point to notes of the source that are not given here. Values belong to the compound of their own block, whether it stands above or below them.
Legend:
Crj: CD(SD)IGS rats [1] = assay: Urinary PAG/hippuric acid ratio by 1H NMR in rats
Protocol: During the urine pooling, the collecting vessels were kept in an ice-cooled condition. After the urine collection, the urine was centrifuged at 1500×g for 10 minutes, and not less than 1 mL of the supernatant was collected and stored under freezing (below −70° C.) in a microtube in an ultralow-temperature freezer until the measurement. For the negative control group, 24-hour pooled urine was collected under ice cooling; after the urine collection, the urine was stored at −30° C. until the measurement.
Crj: CD(SD)IGS rats [2] = details: rat, in vivo
Protocol: The following 10 kinds of commercially available drugs were examined as the test compounds for a potential of inducing PLsis by histopathological examination and peripheral blood lymphocyte testing.
The following experiments were performed using the prematurely autopsied animals.
The high-dose dosing suspension was diluted about 3 fold and 10 fold with dispersant/solvent to prepare intermediate- and low-dose dosing suspensions. […] [For LD50, the Summary Basis of Approval (FDA) for each drug was referenced to.]
The animals were examined for mortality, general conditions, body weight, food consumption and the like using PM4800 (Mettler) and EB3200D (Shimadzu Corporation).

[3] = rat urine, 100 mg/kg/day by gavage, 3 days, mean n = 3-4
[4] = rat urine, 300 mg/kg/day by gavage, 3 days, mean n = 3-4
[5] = rat 24-hour pooled urine, 1 mg/kg/day by gavage, 4 days, negative control drug, mean n = 2-4
[6] = rat 24-hour pooled urine, 3 mg/kg/day by gavage, 4 days, negative control drug, mean n = 2-4
[7] = rat 24-hour pooled urine, 30 mg/kg/day by gavage, 4 days, negative control drug, mean n = 2-4
[8] = rat 24-hour pooled urine, 100 mg/kg/day by gavage, 4 days, negative control drug, mean n = 2-4
[9] = rat urine, 1000 mg/kg/day by gavage, 3 days, mean n = 3-4

PAG + hippuric acid/creatinine (Crj: CD(SD)IGS rats [1]; [3]): 1.21 | PAG/creatinine (first term of PAG + hippuric acid) (Crj: CD(SD)IGS rats [1]; [3]): 0.34 | hippuric acid/creatinine (second term of PAG + hippuric acid) (Crj: CD(SD)IGS rats [1]; [3]): 0.87 | PAG + hippuric acid/creatinine (Crj: CD(SD)IGS rats [1]; [4]): 0.71* | PAG/creatinine (first term of PAG + hippuric acid) (Crj: CD(SD)IGS rats [1]; [4]): 0.40 | hippuric acid/creatinine (second term of PAG + hippuric acid) (Crj: CD(SD)IGS rats [1]; [4]): 0.31
Structure (SMILES): CN(C)CCCN1c2ccccc2CCc2ccccc21 [Imipramine, imipramine]

Histopathological changes (PLsis): Liver (Crj: CD(SD)IGS rats [2]; 1 mg/kg/day): − | Histopathological changes (PLsis): Lung (Crj: CD(SD)IGS rats [2]; 1 mg/kg/day): − | Histopathological changes (PLsis): Lymph node (Crj: CD(SD)IGS rats [2]; 1 mg/kg/day): − | Histopathological changes (PLsis): Others (Crj: CD(SD)IGS rats [2]; 1 mg/kg/day): − | Histopathological changes (PLsis): Spleen (Crj: CD(SD)IGS rats [2]; 1 mg/kg/day): − | Histopathological changes (PLsis): Liver (Crj: CD(SD)IGS rats [2]; 3 mg/kg/day): − | Histopathological changes (PLsis): Lung (Crj: CD(SD)IGS rats [2]; 3 mg/kg/day): − | Histopathological changes (PLsis): Lymph node (Crj: CD(SD)IGS rats [2]; 3 mg/kg/day): − | Histopathological changes (PLsis): Others (Crj: CD(SD)IGS rats [2]; 3 mg/kg/day): − | Histopathological changes (PLsis): Spleen (Crj: CD(SD)IGS rats [2]; 3 mg/kg/day): − | PAG + hippuric acid/creatinine (Crj: CD(SD)IGS rats [1]; [5]): 1.39 | PAG/PAG + hippuric acid (Crj: CD(SD)IGS rats [1]; [5]): 10.79% | PAG/creatinine (first term of PAG + hippuric acid) (Crj: CD(SD)IGS rats [1]; [5]): 0.15 | PAG/hippuric acid (Crj: CD(SD)IGS rats [1]; [5]): 12.09% | hippuric acid/creatinine (second term of PAG + hippuric acid) (Crj: CD(SD)IGS rats [1]; [5]): 1.24 | PAG + hippuric acid/creatinine (Crj: CD(SD)IGS rats [1]; [6]): 1.39 | PAG/PAG + hippuric acid (Crj: CD(SD)IGS rats [1]; [6]): 15.11% | PAG/creatinine (first term of PAG + hippuric acid) (Crj: CD(SD)IGS rats [1]; [6]): 0.21 | PAG/hippuric acid (Crj: CD(SD)IGS rats [1]; [6]): 15.41% | hippuric acid/creatinine (second term of PAG + hippuric acid) (Crj: CD(SD)IGS rats [1]; [6]): 1.18
Structure (SMILES): O=C(Nc1c(Cl)cncc1Cl)c1ccc(OC(F)F)c(OCC2CC2)c1 [Roflumilast, roflumilast]

Histopathological changes (PLsis): Liver (Crj: CD(SD)IGS rats [2]; 30 mg/kg/day): − | Histopathological changes (PLsis): Lung (Crj: CD(SD)IGS rats [2]; 30 mg/kg/day): − | Histopathological changes (PLsis): Lymph node (Crj: CD(SD)IGS rats [2]; 30 mg/kg/day): − | Histopathological changes (PLsis): Others (Crj: CD(SD)IGS rats [2]; 30 mg/kg/day): − | Histopathological changes (PLsis): Spleen (Crj: CD(SD)IGS rats [2]; 30 mg/kg/day): − | Histopathological changes (PLsis): Liver (Crj: CD(SD)IGS rats [2]; 100 mg/kg/day): − | Histopathological changes (PLsis): Lung (Crj: CD(SD)IGS rats [2]; 100 mg/kg/day): − | Histopathological changes (PLsis): Lymph node (Crj: CD(SD)IGS rats [2]; 100 mg/kg/day): − | Histopathological changes (PLsis): Others (Crj: CD(SD)IGS rats [2]; 100 mg/kg/day): − | Histopathological changes (PLsis): Spleen (Crj: CD(SD)IGS rats [2]; 100 mg/kg/day): − | PAG + hippuric acid/creatinine (Crj: CD(SD)IGS rats [1]; [7]): 1.43 | PAG/PAG + hippuric acid (Crj: CD(SD)IGS rats [1]; [7]): 17.48% | PAG/creatinine (first term of PAG + hippuric acid) (Crj: CD(SD)IGS rats [1]; [7]): 0.25 | PAG/hippuric acid (Crj: CD(SD)IGS rats [1]; [7]): 18.22% | hippuric acid/creatinine (second term of PAG + hippuric acid) (Crj: CD(SD)IGS rats [1]; [7]): 1.18 | PAG + hippuric acid/creatinine (Crj: CD(SD)IGS rats [1]; [8]): 1.02 | PAG/PAG + hippuric acid (Crj: CD(SD)IGS rats [1]; [8]): 13.73% | PAG/creatinine (first term of PAG + hippuric acid) (Crj: CD(SD)IGS rats [1]; [8]): 0.14 | PAG/hippuric acid (Crj: CD(SD)IGS rats [1]; [8]): 16.29% | hippuric acid/creatinine (second term of PAG + hippuric acid) (Crj: CD(SD)IGS rats [1]; [8]): 0.88
Structure (SMILES): COc1ccc(C2CNC(=O)C2)cc1OC1CCCC1 (stereo not shown) [Rolipram, rolipram]

Structure (SMILES): CC/C(=C(\c1ccccc1)c1ccc(OCCN(C)C)cc1)c1ccccc1 [Tamoxifen, tamoxifen]
Histopathological changes (PLsis): Liver (Crj: CD(SD)IGS rats [2]; 100 mg/kg/day): − | Histopathological changes (PLsis): Lung (Crj: CD(SD)IGS rats [2]; 100 mg/kg/day): + | Histopathological changes (PLsis): Lymph node (Crj: CD(SD)IGS rats [2]; 100 mg/kg/day): + | Histopathological changes (PLsis): Others (Crj: CD(SD)IGS rats [2]; 100 mg/kg/day): − | Histopathological changes (PLsis): Spleen (Crj: CD(SD)IGS rats [2]; 100 mg/kg/day): − | Histopathological changes (PLsis): Liver (Crj: CD(SD)IGS rats [2]; 300 mg/kg/day): + | Histopathological changes (PLsis): Lung (Crj: CD(SD)IGS rats [2]; 300 mg/kg/day): + | Histopathological changes (PLsis): Lymph node (Crj: CD(SD)IGS rats [2]; 300 mg/kg/day): + | Histopathological changes (PLsis): Others (Crj: CD(SD)IGS rats [2]; 300 mg/kg/day): − | Histopathological changes (PLsis): Spleen (Crj: CD(SD)IGS rats [2]; 300 mg/kg/day): − | Histopathological changes (PLsis): Liver (Crj: CD(SD)IGS rats [2]; 1000 mg/kg/day): + | Histopathological changes (PLsis): Lung (Crj: CD(SD)IGS rats [2]; 1000 mg/kg/day): + | Histopathological changes (PLsis): Lymph node (Crj: CD(SD)IGS rats [2]; 1000 mg/kg/day): + | Histopathological changes (PLsis): Others (Crj: CD(SD)IGS rats [2]; 1000 mg/kg/day): − | Histopathological changes (PLsis): Spleen (Crj: CD(SD)IGS rats [2]; 1000 mg/kg/day): − | PAG + hippuric acid/creatinine (Crj: CD(SD)IGS rats [1]; [3]): 1.34 | PAG/creatinine (first term of PAG + hippuric acid) (Crj: CD(SD)IGS rats [1]; [3]): 0.31 | hippuric acid/creatinine (second term of PAG + hippuric acid) (Crj: CD(SD)IGS rats [1]; [3]): 1.02 | PAG + hippuric acid/creatinine (Crj: CD(SD)IGS rats [1]; [4]): 1.16 | PAG/creatinine (first term of PAG + hippuric acid) (Crj: CD(SD)IGS rats [1]; [4]): 0.63 | hippuric acid/creatinine (second term of PAG + hippuric acid) (Crj: CD(SD)IGS rats [1]; [4]): 0.53 | PAG + hippuric acid/creatinine (Crj: CD(SD)IGS rats [1]; [9]): 1.58 | PAG/creatinine (first term of PAG + hippuric acid) (Crj: CD(SD)IGS rats [1]; [9]): 0.91 | hippuric acid/creatinine (second term of PAG + hippuric acid) (Crj: CD(SD)IGS rats [1]; [9]): 0.67

Reference: patent publication US7399638B2, “Prediction method for lipidosis” (Takeda Pharmaceutical Company Limited, priority 2003, dated 2008)
